# Measured values taken from US20210308173A1, “PHARMACEUTICAL COMPOSITION COMPRISING CYCLODEXTRIN COMPLEXES OF ANETHOLE TRITHIONE OR DERIVATIVES THEREOF” (priority 2018, published 2021).
# Where two headings read alike, the source gives them in different places.
# How the values were obtained:
# [1] = Cyclodextrin-AOL solubility diagrams; type: physicochemical; conditions: for solubility: 4 °C; for solubility / solubility at 4 h: aqueous with cosolvent or surfactant or cyclodextrin, thermodynamic from solid
# Source text: A cyclodextrin-AOL solubility diagram would reveal the profile of the solubility curve of the AOL depending on the concentration of the cyclodextrin. The principle of this method is to add an excess of AOL to cyclodextrin solutions of increasing concentration, then to measure the amount of solubilized AOL. This method confirms the solubilization and evaluates more precisely the cyclodextrin solubilizing power, to define a stoichiometry of the complexes (molar and mass ratios) over the entire range of concentrations studied and to estimate the solubility limit and the stability of the mixtures.
# The solubilization was carried out with HP-β-CD and SBE-β-CD in a range of concentration ranging from 2.5% to 40% (m/m) at 20° C., 25° C. and 30° C. To check the stability of the solution, a storage test at 4° C. for 48 hours was carried out with the solutions previously prepared at 20° C.
# Aqueous solutions of cyclodextrin at in weight (m/m) concentrations of 2.5%, 5%, 10%, 20%, 30% and 40% were prepared in pure water. An excess of AOL was suspended in 2 mL each of these solutions. Each sample is shaken at 20° C., 25° C. or 30° C. for 4 hours (vortex at 1400 rpm). Each sample is centrifuged (12,500 g) and filtered through a 0.45 μm membrane.
# The solubility of AOL in each test solution was quantified by HPLC as detailed in Example 2.
# [2] = Stability versus formulation according to Dollo et al.; type: physicochemical; conditions: formulation of the invention vs formulation according to Dollo et al.
# Source text: Consequently, the formulations wherein anethole trithione and derivatives thereof present an improved solubility and stability are still an unmet need.
# [3] = SBE-β-CD 20% (w/w), 20° C. followed by 48 hours at 4° C.
# [4] = SBE-β-CD 30% (w/w), 20° C. followed by 48 hours at 4° C.
# [5] = SBE-β-CD 40% (w/w), 20° C. followed by 48 hours at 4° C.
smiles,measurement,setting,value
"COc1ccc(-c2cc(=S)ss2)cc1 [AOL, 5-(4-methoxyphenyl)-3H-1,2-dithiole-3-thione]",CD/AOL weight ratio Rm,"[1]; SBE-β-CD 20% (w/w), 20° C.",722
same,CD/AOL molar ratio RM,[1]; [3],130
same,CD/AOL weight ratio Rm,[1]; [3],1211
same,CD/AOL molar ratio RM,"[1]; SBE-β-CD 20% (w/w), 25° C.",63
same,CD/AOL weight ratio Rm,"[1]; SBE-β-CD 20% (w/w), 25° C.",587
same,CD/AOL molar ratio RM,"[1]; SBE-β-CD 20% (w/w), 30° C.",50
same,CD/AOL weight ratio Rm,"[1]; SBE-β-CD 20% (w/w), 30° C.",469
same,CD/AOL molar ratio RM,"[1]; SBE-β-CD 30% (w/w), 20° C.",70
same,CD/AOL weight ratio Rm,"[1]; SBE-β-CD 30% (w/w), 20° C.",650
same,CD/AOL molar ratio RM,[1]; [4],112
same,CD/AOL weight ratio Rm,[1]; [4],1049
same,CD/AOL molar ratio RM,"[1]; SBE-β-CD 30% (w/w), 25° C.",56
same,CD/AOL weight ratio Rm,"[1]; SBE-β-CD 30% (w/w), 25° C.",522
same,CD/AOL molar ratio RM,"[1]; SBE-β-CD 30% (w/w), 30° C.",45
same,CD/AOL weight ratio Rm,"[1]; SBE-β-CD 30% (w/w), 30° C.",417
same,CD/AOL molar ratio RM,"[1]; SBE-β-CD 40% (w/w), 20° C.",64
same,CD/AOL weight ratio Rm,"[1]; SBE-β-CD 40% (w/w), 20° C.",600
same,CD/AOL molar ratio RM,[1]; [5],94
same,CD/AOL weight ratio Rm,[1]; [5],876
same,CD/AOL molar ratio RM,"[1]; SBE-β-CD 40% (w/w), 25° C.",51
same,CD/AOL weight ratio Rm,"[1]; SBE-β-CD 40% (w/w), 25° C.",474
same,CD/AOL molar ratio RM,"[1]; SBE-β-CD 40% (w/w), 30° C.",41
same,CD/AOL weight ratio Rm,"[1]; SBE-β-CD 40% (w/w), 30° C.",383
same,solubility,"[1]; aqueous HP-β-CD solution, HP-β-CD 2.5% (w/w), 20° C. followed by 48 hours at 4° C.",11.6 µg/mL
same,solubility,"[1]; aqueous HP-β-CD solution, HP-β-CD 5% (w/w), 20° C. followed by 48 hours at 4° C.",25.1 µg/mL
same,solubility,"[1]; aqueous HP-β-CD solution, HP-β-CD 10% (w/w), 20° C. followed by 48 hours at 4° C.",52.7 µg/mL
same,solubility,"[1]; aqueous HP-β-CD solution, HP-β-CD 20% (w/w), 20° C. followed by 48 hours at 4° C.",109 µg/mL
same,solubility,"[1]; aqueous HP-β-CD solution, HP-β-CD 30% (w/w), 20° C. followed by 48 hours at 4° C.",187 µg/mL
same,solubility,"[1]; aqueous HP-β-CD solution, HP-β-CD 40% (w/w), 20° C. followed by 48 hours at 4° C.",270 µg/mL
same,solubility at 4 h,"[1]; aqueous HP-β-CD solution, 20 °C, HP-β-CD 2.5% (w/w), 20° C., read-out: AOL solubility",13.4 µg/mL
same,solubility at 4 h,"[1]; aqueous HP-β-CD solution, 20 °C, HP-β-CD 5% (w/w), 20° C., read-out: AOL solubility",27.3 µg/mL
same,solubility at 4 h,"[1]; aqueous HP-β-CD solution, 30 °C, HP-β-CD 40% (w/w), 30° C., read-out: AOL solubility",644 µg/mL
same,solubility,"[1]; aqueous SBE-β-CD solution, SBE-β-CD 2.5% (w/w), 20° C. followed by 48 hours at 4° C.",16.9 µg/mL
same,solubility,"[1]; aqueous SBE-β-CD solution, SBE-β-CD 5% (w/w), 20° C. followed by 48 hours at 4° C.",34.6 µg/mL
same,solubility,"[1]; aqueous SBE-β-CD solution, SBE-β-CD 10% (w/w), 20° C. followed by 48 hours at 4° C.",70.7 µg/mL
same,solubility,"[1]; aqueous SBE-β-CD solution, SBE-β-CD 20% (w/w), 20° C. followed by 48 hours at 4° C.",165 µg/mL
same,solubility,"[1]; aqueous SBE-β-CD solution, SBE-β-CD 30% (w/w), 20° C. followed by 48 hours at 4° C.",286 µg/mL
same,solubility,"[1]; aqueous SBE-β-CD solution, SBE-β-CD 40% (w/w), 20° C. followed by 48 hours at 4° C.",457 µg/mL
same,solubility at 4 h,"[1]; aqueous SBE-β-CD solution, 20 °C, SBE-β-CD 2.5% (w/w), 20° C., read-out: AOL solubility",29.3 µg/mL
same,solubility at 4 h,"[1]; aqueous SBE-β-CD solution, 20 °C, SBE-β-CD 5% (w/w), 20° C., read-out: AOL solubility",59.7 µg/mL
same,solubility at 4 h,"[1]; aqueous SBE-β-CD solution, 20 °C, SBE-β-CD 10% (w/w), 20° C., read-out: AOL solubility",125 µg/mL
same,solubility at 4 h,"[1]; aqueous SBE-β-CD solution, 20 °C, SBE-β-CD 20% (w/w), 20° C., read-out: AOL solubility",277 µg/mL
same,solubility at 4 h,"[1]; aqueous SBE-β-CD solution, 20 °C, SBE-β-CD 30% (w/w), 20° C., read-out: AOL solubility",462 µg/mL
same,solubility at 4 h,"[1]; aqueous SBE-β-CD solution, 20 °C, SBE-β-CD 40% (w/w), 20° C., read-out: AOL solubility",667 µg/mL
same,solubility at 4 h,"[1]; aqueous SBE-β-CD solution, 25 °C, SBE-β-CD 2.5% (w/w), 25° C., read-out: AOL solubility",35.8 µg/mL
same,solubility at 4 h,"[1]; aqueous SBE-β-CD solution, 25 °C, SBE-β-CD 5% (w/w), 25° C., read-out: AOL solubility",74.9 µg/mL
same,solubility at 4 h,"[1]; aqueous SBE-β-CD solution, 25 °C, SBE-β-CD 10% (w/w), 25° C., read-out: AOL solubility",156 µg/mL
same,solubility at 4 h,"[1]; aqueous SBE-β-CD solution, 25 °C, SBE-β-CD 20% (w/w), 25° C., read-out: AOL solubility",340 µg/mL
same,solubility at 4 h,"[1]; aqueous SBE-β-CD solution, 25 °C, SBE-β-CD 30% (w/w), 25° C., read-out: AOL solubility",575 µg/mL
same,solubility at 4 h,"[1]; aqueous SBE-β-CD solution, 25 °C, SBE-β-CD 40% (w/w), 25° C., read-out: AOL solubility",844 µg/mL
same,solubility at 4 h,"[1]; aqueous SBE-β-CD solution, 30 °C, SBE-β-CD 2.5% (w/w), 30° C., read-out: AOL solubility",44.7 µg/mL
same,solubility at 4 h,"[1]; aqueous SBE-β-CD solution, 30 °C, SBE-β-CD 5% (w/w), 30° C., read-out: AOL solubility",96.2 µg/mL
same,solubility at 4 h,"[1]; aqueous SBE-β-CD solution, 30 °C, SBE-β-CD 10% (w/w), 30° C., read-out: AOL solubility",197 µg/mL
same,solubility at 4 h,"[1]; aqueous SBE-β-CD solution, 30 °C, SBE-β-CD 20% (w/w), 30° C., read-out: AOL solubility",427 µg/mL
same,solubility at 4 h,"[1]; aqueous SBE-β-CD solution, 30 °C, SBE-β-CD 30% (w/w), 30° C., read-out: AOL solubility",720 µg/mL
same,solubility at 4 h,"[1]; aqueous SBE-β-CD solution, 30 °C, SBE-β-CD 40% (w/w), 30° C., read-out: AOL solubility",1040 µg/mL
same,solubility at 4 h,"[1]; aqueous cyclodextrin solution, 20 °C, HP-β-CD 10% (w/w), 20° C., read-out: AOL solubility",61.3 µg/mL
same,solubility at 4 h,"[1]; aqueous cyclodextrin solution, 20 °C, HP-β-CD 20% (w/w), 20° C., read-out: AOL solubility",145 µg/mL
same,solubility at 4 h,"[1]; aqueous cyclodextrin solution, 20 °C, HP-β-CD 30% (w/w), 20° C., read-out: AOL solubility",243 µg/mL
same,solubility at 4 h,"[1]; aqueous cyclodextrin solution, 20 °C, HP-β-CD 40% (w/w), 20° C., read-out: AOL solubility",344 µg/mL
same,solubility at 4 h,"[1]; aqueous cyclodextrin solution, 25 °C, HP-β-CD 2.5% (w/w), 25° C., read-out: AOL solubility",19.5 µg/mL
same,solubility at 4 h,"[1]; aqueous cyclodextrin solution, 25 °C, HP-β-CD 5% (w/w), 25° C., read-out: AOL solubility",40.1 µg/mL
same,solubility at 4 h,"[1]; aqueous cyclodextrin solution, 25 °C, HP-β-CD 10% (w/w), 25° C., read-out: AOL solubility",83.9 µg/mL
same,solubility at 4 h,"[1]; aqueous cyclodextrin solution, 25 °C, HP-β-CD 20% (w/w), 25° C., read-out: AOL solubility",184 µg/mL
same,solubility at 4 h,"[1]; aqueous cyclodextrin solution, 25 °C, HP-β-CD 30% (w/w), 25° C., read-out: AOL solubility",287 µg/mL
same,solubility at 4 h,"[1]; aqueous cyclodextrin solution, 25 °C, HP-β-CD 40% (w/w), 25° C., read-out: AOL solubility",418 µg/mL
same,solubility at 4 h,"[1]; aqueous cyclodextrin solution, 30 °C, 30° C., 40% (w/w) HP-β-CD, read-out: highest solubility reached",650 µg/mL
same,solubility at 4 h,"[1]; aqueous cyclodextrin solution, 30 °C, 30° C., 40% SBE-β-CD, read-out: solubility",> 1000 µg/mL
same,solubility at 4 h,"[1]; aqueous cyclodextrin solution, 30 °C, HP-β-CD 2.5% (w/w), 30° C., read-out: AOL solubility",26.1 µg/mL
same,solubility at 4 h,"[1]; aqueous cyclodextrin solution, 30 °C, HP-β-CD 5% (w/w), 30° C., read-out: AOL solubility",51.4 µg/mL
same,solubility at 4 h,"[1]; aqueous cyclodextrin solution, 30 °C, HP-β-CD 10% (w/w), 30° C., read-out: AOL solubility",114 µg/mL
same,solubility at 4 h,"[1]; aqueous cyclodextrin solution, 30 °C, HP-β-CD 20% (w/w), 30° C., read-out: AOL solubility",255 µg/mL
same,solubility at 4 h,"[1]; aqueous cyclodextrin solution, 30 °C, HP-β-CD 30% (w/w), 30° C., read-out: AOL solubility",458 µg/mL
same,stability of the active compound,[2],significantly more stable
